# Target: T1, Indoleamine 2,3-dioxygenase 1 (IDO1) (Homo sapiens, UniProt P14902)
# T1 construct: recombinant human IDO1, N-His-tag, expressed in E. coli
# Assay: methylene blue/ascorbate assay of purified recombinant IDO1, HPLC; Lineweaver-Burk kinetics
# Assay type: biochemical
# T1 sequence (P14902 whole entry): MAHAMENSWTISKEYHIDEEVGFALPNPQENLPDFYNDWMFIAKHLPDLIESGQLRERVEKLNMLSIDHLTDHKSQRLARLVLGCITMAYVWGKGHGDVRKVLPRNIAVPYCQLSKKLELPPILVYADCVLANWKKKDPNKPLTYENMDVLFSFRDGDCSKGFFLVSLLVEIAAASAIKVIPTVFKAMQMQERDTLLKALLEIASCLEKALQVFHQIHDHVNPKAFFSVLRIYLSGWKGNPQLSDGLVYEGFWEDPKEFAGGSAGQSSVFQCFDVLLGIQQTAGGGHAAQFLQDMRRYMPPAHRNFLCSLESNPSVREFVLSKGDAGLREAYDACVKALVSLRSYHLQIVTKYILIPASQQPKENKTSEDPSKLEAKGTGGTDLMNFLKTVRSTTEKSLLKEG
substance,measurement,value
galanal,IC50,7.7 µM

# Reference: PMC3923053, “Effects of Various Phytochemicals on Indoleamine 2,3-Dioxygenase 1 Activity: Galanal Is a Novel, Competitive Inhibitor of the Enzyme” (PLoS ONE, 2014)
